PubChem BioAssay AID1963856 (Molecular Pharmacology Branch, DTP, NCI, 2024)

Tested on: LG0567-F671-PDC KRAS tumor spheroid viability
Test: Anticancer human tumor LG0567-F671-PDC patient-derived lung adenocarcinoma cell line growth inhibition [KRAS2]
Settings: spheroids with HUVEC and MSC; for IC50: curve of first compound; for viability, T/C: stronger effect = lower value
Summary of the method: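 KRAS-mutant tumor cells were grown as spheroids with HUVEC endothelial cells and human MSCs as stroma. Targeted agents were tested alone and with KRAS pathway inhibitors. Doses started at or near clinical Cmax, or 10 microM, descending half-log.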

[1] = second compound 0.0316 µM, first compound 0.0316 µM
[2] = second compound 0.0316 µM, first compound 0.1 µM
[3] = second compound 0.0316 µM, first compound 0.316 µM
[4] = second compound 0.0316 µM, first compound 1 µM
[5] = second compound 0.0316 µM, first compound 3.16 µM
[6] = second compound 0.1 µM, first compound 0.0316 µM
[7] = second compound 0.1 µM, first compound 0.1 µM
[8] = second compound 0.1 µM, first compound 0.316 µM
[9] = second compound 0.1 µM, first compound 1 µM
[10] = second compound 0.1 µM, first compound 3.16 µM
[11] = second compound 0.316 µM, first compound 0.0316 µM
[12] = second compound 0.316 µM, first compound 0.1 µM
[13] = second compound 0.316 µM, first compound 0.316 µM
[14] = second compound 0.316 µM, first compound 1 µM
[15] = second compound 0.316 µM, first compound 3.16 µM
[16] = second compound 1 µM, first compound 0.0316 µM
[17] = second compound 1 µM, first compound 0.1 µM
[18] = second compound 1 µM, first compound 0.316 µM
[19] = second compound 1 µM, first compound 1 µM
[20] = second compound 1 µM, first compound 3.16 µM
[21] = second compound 3.16 µM, first compound 0.0316 µM
[22] = second compound 3.16 µM, first compound 0.1 µM
[23] = second compound 3.16 µM, first compound 0.316 µM
[24] = second compound 3.16 µM, first compound 1 µM
[25] = second compound 3.16 µM, first compound 3.16 µM
[26] = second compound 0.0316 µM, first compound 10 µM
[27] = second compound 0.1 µM, first compound 10 µM
[28] = second compound 0.316 µM, first compound 10 µM
[29] = second compound 1 µM, first compound 10 µM
[30] = second compound 3.16 µM, first compound 10 µM
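Also: drug exposure lasted seven days after spheroids formed for three days.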
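For viability, T/C in this document: 100% = DMSO vehicle control viability.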

Row | Compound | IC50 (second compound 0.0316 µM) [nM] | IC50 (second compound 0.1 µM) [nM] | IC50 (second compound 0.316 µM) [nM] | IC50 (second compound 1 µM) [nM] | IC50 (second compound 3.16 µM) [nM] | viability, T/C [1] [%] | viability, T/C [2] [%] | viability, T/C [3] [%] | viability, T/C [4] [%] | viability, T/C [5] [%] | viability, T/C [6] [%] | viability, T/C [7] [%] | viability, T/C [8] [%] | viability, T/C [9] [%] | viability, T/C [10] [%] | viability, T/C [11] [%] | viability, T/C [12] [%] | viability, T/C [13] [%] | viability, T/C [14] [%] | viability, T/C [15] [%] | further results
1 | CC1COCCN1c1cc(-c2ccnn2C)c2ccnc(-c3ccn[nH]3)c2n1 (stereo not given) + C=CC(=O)N1CCN(c2nc(OCC3CCCN3C)nc3c2CCN(c2cccc4cccc(C)c24)C3)CC1CC#N | < 10 | < 10 | < 10 | < 10 | < 10 | 23.5 | 17.1 | 15.6 | 14.1 | 12.7 | 21.2 | 17.4 | 12.7 | 10.8 | 10.4 | 19.4 | 15.6 | 11.3 | 12.1 | 10.7 | viability, T/C (second compound 0.0316 µM, first compound 0.01 µM): 33.7%; viability, T/C (second compound 0.1 µM, first compound 0.01 µM): 26.9%; viability, T/C (second compound 0.316 µM, first compound 0.01 µM): 24.7%; viability, T/C (second compound 1 µM, first compound 0.01 µM): 26.8%; viability, T/C [16]: 21.4%; viability, T/C [17]: 16.7%; viability, T/C [18]: 13.9%; viability, T/C [19]: 13.9%; viability, T/C [20]: 13.7%; viability, T/C (second compound 3.16 µM, first compound 0.01 µM): 26.2%; viability, T/C [21]: 22.6%; viability, T/C [22]: 20.8%; viability, T/C [23]: 17.3%; viability, T/C [24]: 13.3%; viability, T/C [25]: 12.2%
2 | CC1OCC2(CCN(c3cnc(Sc4ccnc(N)c4Cl)c(N)n3)CC2)C1N (stereo not given) + C=CC(=O)N1CCN(c2nc(OCC3CCCN3C)nc3c2CCN(c2cccc4cccc(C)c24)C3)CC1CC#N | < 31.6 | < 31.6 | < 31.6 | < 31.6 | < 31.6 | 28.3 | 18.1 | 16.3 | 11.3 | 5.27 | 24.7 | 14.6 | 13.5 | 7.14 | 3.83 | 26.3 | 17.8 | 12.3 | 10 | 5.4 | viability, T/C [26]: 4.04%; viability, T/C [27]: 4.19%; viability, T/C [28]: 3.32%; viability, T/C [16]: 20.1%; viability, T/C [17]: 15.6%; viability, T/C [18]: 11.5%; viability, T/C [19]: 7.73%; viability, T/C [20]: 5.45%; viability, T/C [29]: 6.7%; viability, T/C [21]: 29.1%; viability, T/C [22]: 21.1%; viability, T/C [23]: 17.2%; viability, T/C [24]: 8.14%; viability, T/C [25]: 5.63%; viability, T/C [30]: 4.39%
3 | Cn1nccc1Nc1nccc(-c2cc3c(s2)C(C)(C)N(CCN2CCOCC2)C3=O)n1 + C=CC(=O)N1CCN(c2nc(OCC3CCCN3C)nc3c2CCN(c2cccc4cccc(C)c24)C3)CC1CC#N | < 31.6 | < 31.6 | < 31.6 | < 31.6 | < 31.6 | 34.5 | 28.7 | 39.7 | 19.2 | 19.9 | 26.8 | 31.8 | 28 | 23.3 | 17.8 | 33.2 | 25.8 | 21.2 | 35.5 | 16.8 | viability, T/C [26]: 19.7%; viability, T/C [27]: 21.1%; viability, T/C [28]: 19.1%; viability, T/C [16]: 29.6%; viability, T/C [17]: 26.9%; viability, T/C [18]: 33.1%; viability, T/C [19]: 26.5%; viability, T/C [20]: 15.3%; viability, T/C [29]: 19.4%; viability, T/C [21]: 29.3%; viability, T/C [22]: 29.1%; viability, T/C [23]: 28.1%; viability, T/C [24]: 23.2%; viability, T/C [25]: 21.7%; viability, T/C [30]: 24.4%
